According to ChEMBL document CHEMBL5050844 (2019):

Columns and labels:
[1] = Induction of anti-CD3/CD28 antibodies-stimulated human T cell activation at 1 uM assessed fold increase in IL-2 secretion measured by ELISA assay; assay type: functional, T cell line
[2] = biological target: E3 ubiquitin-protein ligase CBL-B (Homo sapiens, UniProt Q13191); test: Inhibition of N-terminal Avi-tagged human CBL-B (36 to 427 residues) incubated with 60 nM Src kinase for 1.5 hrs followed by incubation with fluorescently labeled UbcH5B-Ub for 1 hr and measured by TR-FRET assay; assay type: single protein
Chain of E3 ubiquitin-protein ligase CBL-B (Q13191 whole entry, the tested form may be a part): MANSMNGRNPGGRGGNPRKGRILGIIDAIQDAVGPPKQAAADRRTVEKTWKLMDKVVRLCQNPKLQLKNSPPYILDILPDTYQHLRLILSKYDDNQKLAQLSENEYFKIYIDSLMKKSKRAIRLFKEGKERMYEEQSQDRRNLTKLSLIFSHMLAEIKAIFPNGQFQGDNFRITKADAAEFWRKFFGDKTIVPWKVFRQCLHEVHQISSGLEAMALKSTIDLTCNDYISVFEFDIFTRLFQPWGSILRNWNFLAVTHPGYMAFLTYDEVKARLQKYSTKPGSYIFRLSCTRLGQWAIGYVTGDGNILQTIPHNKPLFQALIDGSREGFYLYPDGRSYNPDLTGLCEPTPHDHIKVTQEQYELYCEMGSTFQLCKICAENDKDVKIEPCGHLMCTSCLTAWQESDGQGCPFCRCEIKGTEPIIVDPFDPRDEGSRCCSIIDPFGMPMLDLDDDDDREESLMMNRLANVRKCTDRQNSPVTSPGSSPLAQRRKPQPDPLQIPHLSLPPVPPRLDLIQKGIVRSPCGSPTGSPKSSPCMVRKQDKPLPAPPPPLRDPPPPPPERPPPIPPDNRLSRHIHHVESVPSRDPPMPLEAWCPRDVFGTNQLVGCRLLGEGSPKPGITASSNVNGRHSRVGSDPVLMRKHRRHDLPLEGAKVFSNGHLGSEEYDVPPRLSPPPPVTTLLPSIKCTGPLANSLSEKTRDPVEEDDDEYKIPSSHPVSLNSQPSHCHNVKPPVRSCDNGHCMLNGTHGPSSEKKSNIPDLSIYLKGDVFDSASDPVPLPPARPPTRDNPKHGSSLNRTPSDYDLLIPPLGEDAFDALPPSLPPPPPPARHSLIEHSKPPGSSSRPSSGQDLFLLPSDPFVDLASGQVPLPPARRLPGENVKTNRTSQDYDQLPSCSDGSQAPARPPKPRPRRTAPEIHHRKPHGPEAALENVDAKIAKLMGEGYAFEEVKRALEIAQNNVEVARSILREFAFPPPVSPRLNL

[3] = Induction of anti-CD3 antibodies-stimulated human T cell activation at 1 uM assessed fold increase in CD25 expression measured by ELISA assay; assay type: functional, T cell line; also: reference of the scale not given here
[4] = Induction of anti-CD3/CD28 antibodies-stimulated human T cell activation at 0.3 uM assessed fold increase in IL-2 secretion measured by ELISA assay; assay type: functional, T cell line
[5] = Induction of anti-CD3/CD28 antibodies-stimulated human T cell activation at 0.3 uM assessed fold increase in CD25 expression measured by ELISA assay; assay type: functional, T cell line
[6] = Induction of anti-CD3 antibodies-stimulated human T cell activation at 1 uM assessed fold increase in IL-2 secretion measured by ELISA assay; assay type: functional, T cell line; also: reference of the scale not given here
[7] = Induction of anti-CD3/CD28 antibodies-stimulated human T cell activation at 1 uM assessed fold increase in CD25 expression measured by ELISA assay; assay type: functional, T cell line

SMILES: CC(c1cc2c(c(C(F)(F)F)c1)CN(c1cccc(C3(Cc4nncn4C)COC3)c1)C2=O)N1CC(S(C)(=O)=O)C1 (stereo not given)
- fold change (FC) [1]: 1.01
- IC50 [2]: < 100 nM
- fold change (FC) [3]: 0.601
- fold change (FC) [4]: 1.01
- fold change (FC) [5]: 1.01
- fold change (FC) [6]: 0.101
- fold change (FC) [7]: 1.01

SMILES: Cn1cnnc1CC1(c2cccc(N3Cc4c(cc(CN5Cc6ccccc6C5)cc4C(F)(F)F)C3=O)c2)COC1
- fold change (FC) [1]: >=7.5
- IC50 [2]: < 100 nM
- fold change (FC) [3]: >=1.001
- fold change (FC) [4]: 5
- fold change (FC) [5]: 1.31
- fold change (FC) [6]: >=0.201
- fold change (FC) [7]: 1.31

SMILES: CN1CC2CC1CN2c1cc2c(c(C(F)(F)F)c1)CN(c1cccc([C@@](C)(F)C(F)(F)c3nncn3C)c1)C2=O (single isomer, unassigned; 562)
- fold change (FC) [1]: >=7.5
- IC50 [2]: < 100 nM
- fold change (FC) [3]: >=1.001
- fold change (FC) [4]: 5
- fold change (FC) [5]: 1.51
- fold change (FC) [6]: >=0.201
- fold change (FC) [7]: 1.51

SMILES: Cn1cnnc1CC1(c2cccc(NC(=O)c3cc(CN4CC[C@H](F)C4)nc(C4CC4)n3)c2)COC1
- fold change (FC) [1]: >=7.5
- IC50 [2]: < 100 nM
- fold change (FC) [3]: >=1.001
- fold change (FC) [4]: >=7.5
- fold change (FC) [5]: 1.51
- fold change (FC) [6]: >=0.201
- fold change (FC) [7]: 1.51

SMILES: Cn1cnnc1CC1(c2cccc(N3Cc4c(cc(CC5CCCO5)cc4C(F)(F)F)C3=O)c2)COC1 (stereo not given)
- fold change (FC) [1]: >=7.5
- IC50 [2]: < 100 nM
- fold change (FC) [3]: 0.801
- fold change (FC) [4]: 2.51
- fold change (FC) [5]: 1.01
- fold change (FC) [6]: 0.101
- fold change (FC) [7]: 1.01

SMILES: CCN1CCN(Cc2cc3c(c(C(F)(F)F)c2)CN(c2cccc(C4(Cc5nncn5C)COC4)c2)C3=O)CC1
- fold change (FC) [1]: >=7.5
- IC50 [2]: < 100 nM
- fold change (FC) [3]: >=1.001
- fold change (FC) [4]: 5
- fold change (FC) [5]: 1.31
- fold change (FC) [6]: >=0.201
- fold change (FC) [7]: 1.31

SMILES: CCOc1cc(N2Cc3c(cc([C@@H](C)N4CC[C@H](F)C4)cc3C(F)(F)F)C2=O)cc(C2(Cc3nncn3C)COC2)c1
- fold change (FC) [1]: >=7.5
- IC50 [2]: < 100 nM
- fold change (FC) [3]: >=1.001
- fold change (FC) [4]: >=7.5
- fold change (FC) [5]: 1.31
- fold change (FC) [6]: >=0.201
- fold change (FC) [7]: 1.51

SMILES: C[C@H](c1cc2c(c(C(F)(F)F)c1)CN(c1cccc(C3(Cc4nncn4C)COC3)c1)C2=O)N1CC(F)C1
- fold change (FC) [1]: 5
- IC50 [2]: < 100 nM
- fold change (FC) [3]: >=1.001
- fold change (FC) [4]: 2.51
- fold change (FC) [5]: 1.31
- fold change (FC) [6]: 0.101
- fold change (FC) [7]: 1.51

SMILES: Cn1cnnc1C[C@]1(c2cccc(N3Cc4c(cc(CN5CCC6(CC6)C5)cc4C(F)(F)F)C3=O)c2)CCOC1
- fold change (FC) [1]: >=7.5
- IC50 [2]: < 100 nM
- fold change (FC) [3]: >=1.001
- fold change (FC) [4]: >=7.5
- fold change (FC) [5]: 1.01
- fold change (FC) [6]: >=0.201
- fold change (FC) [7]: 1.01

SMILES: Cn1cnnc1CC1(c2cccc(N3Cc4c(cc(N5CCN6CCC[C@H]6C5)cc4C(F)(F)F)C3=O)c2)COC1
- fold change (FC) [1]: >=7.5
- IC50 [2]: < 100 nM
- fold change (FC) [3]: >=1.001
- fold change (FC) [4]: >=7.5
- fold change (FC) [5]: >=1.76
- fold change (FC) [6]: >=0.201
- fold change (FC) [7]: >=1.76

SMILES: Cc1cc(C(=O)Nc2cccc([C@@]3(Cc4nncn4C)CCOC3)c2)nc(C2CC2)n1
- fold change (FC) [1]: 2.51
- IC50 [2]: < 100 nM
- fold change (FC) [3]: 0.801
- fold change (FC) [4]: 2.51
- fold change (FC) [5]: 1.01
- fold change (FC) [6]: 0.101
- fold change (FC) [7]: 1.01

SMILES: COc1cc(C(=O)Nc2cccc(C3(Cc4nncn4C)COC3)c2)nc(C2CC2)n1
- fold change (FC) [1]: >=7.5
- IC50 [2]: < 100 nM
- fold change (FC) [3]: >=1.001
- fold change (FC) [4]: 5
- fold change (FC) [5]: 1.01
- fold change (FC) [6]: 0.151
- fold change (FC) [7]: 1.31

SMILES: COc1ccc2c(c1)CN(Cc1cc3c(c(C(F)(F)F)c1)CN(c1cccc(C4(Cc5nncn5C)COC4)c1)C3=O)C2
- fold change (FC) [1]: >=7.5
- IC50 [2]: < 100 nM
- fold change (FC) [3]: >=1.001
- fold change (FC) [4]: >=7.5
- fold change (FC) [5]: 1.31
- fold change (FC) [6]: >=0.201
- fold change (FC) [7]: 1.31

SMILES: Cn1cnnc1CC1(c2cccc(N3Cc4c(cc(OC5CC5)cc4C(F)(F)F)C3=O)c2)COC1
- fold change (FC) [1]: 2.51
- IC50 [2]: < 100 nM
- fold change (FC) [3]: >=1.001
- fold change (FC) [4]: 1.01
- fold change (FC) [5]: 1.01
- fold change (FC) [6]: 0.151
- fold change (FC) [7]: 1.01

SMILES: Cn1cnnc1CC1(c2cccc(N3Cc4c(cc(CN5CC[C@@H](CO)C(F)(F)C5)cc4C(F)(F)F)C3=O)c2)COC1
- fold change (FC) [1]: >=7.5
- IC50 [2]: < 100 nM
- fold change (FC) [3]: 0.801
- fold change (FC) [4]: 2.51
- fold change (FC) [5]: 1.31
- fold change (FC) [6]: 0.101
- fold change (FC) [7]: 1.31

SMILES: CN1C[C@@H]2C[C@H]1CN2c1cc2c(c(C(F)(F)F)c1)CN(c1cccc(C3(Cc4nncn4C)COC3)c1)C2=O (single isomer, unassigned)
- fold change (FC) [1]: >=7.5
- IC50 [2]: < 100 nM
- fold change (FC) [3]: >=1.001
- fold change (FC) [4]: >=7.5
- fold change (FC) [5]: 1.31
- fold change (FC) [6]: >=0.201
- fold change (FC) [7]: 1.31

SMILES: Cn1cnnc1CC1(c2cccc(N3Cc4c(cc(CN5CC6CC5CO6)cc4C(F)(F)F)C3=O)c2)COC1 (stereo not given)
- fold change (FC) [1]: 5
- IC50 [2]: < 100 nM
- fold change (FC) [3]: 0.801
- fold change (FC) [4]: 2.51
- fold change (FC) [5]: 1.01
- fold change (FC) [6]: 0.051
- fold change (FC) [7]: 1.01

SMILES: Cn1cnnc1[C@@H](F)C1(c2cccc(N3Cc4c(cc(CN5[C@H]6CC[C@H]5CC(F)C6)cc4C(F)(F)F)C3=O)c2)COC1 (stereo not given in full)
- fold change (FC) [1]: >=7.5
- IC50 [2]: < 100 nM
- fold change (FC) [3]: 0.801
- fold change (FC) [4]: 2.51
- fold change (FC) [5]: >=1.76
- fold change (FC) [6]: >=0.201
- fold change (FC) [7]: >=1.76

SMILES: Cn1cnnc1CC1(c2cccc(NC(=O)c3cc(N4CC(C(F)F)C4)nc(C4CC4)n3)c2)COC1
- fold change (FC) [1]: >=7.5
- IC50 [2]: < 100 nM
- fold change (FC) [3]: 0.801
- fold change (FC) [4]: 2.51
- fold change (FC) [5]: 1.01
- fold change (FC) [6]: 0.101
- fold change (FC) [7]: 1.01

SMILES: CC(c1cc(C(=O)Nc2cccc(C3(Cc4nncn4C)COC3)c2)nc(C2CC2)n1)N1CCCC1 (stereo not given)
- fold change (FC) [1]: >=7.5
- IC50 [2]: < 100 nM
- fold change (FC) [3]: >=1.001
- fold change (FC) [4]: >=7.5
- fold change (FC) [5]: 1.31
- fold change (FC) [6]: >=0.201
- fold change (FC) [7]: 1.31

SMILES: Cn1cnnc1CC1(c2cccc(N3Cc4c(cc(CN5CCCC(F)(F)C5)cc4C(F)(F)F)C3=O)c2)COC1
- fold change (FC) [1]: >=7.5
- IC50 [2]: < 100 nM
- fold change (FC) [3]: >=1.001
- fold change (FC) [4]: >=7.5
- fold change (FC) [5]: 1.51
- fold change (FC) [6]: >=0.201
- fold change (FC) [7]: 1.51

SMILES: Cn1cnnc1CC1(c2cccc(N3Cc4c(cc(C5CCCOC5)cc4C(F)(F)F)C3=O)c2)COC1 (stereo not given)
- IC50 [2]: < 100 nM

SMILES: Cn1cnnc1CC1(c2cccc(N3Cc4c(cc(CN5CCOC(C(F)F)C5)cc4C(F)(F)F)C3=O)c2)COC1 (stereo not given)
- IC50 [2]: < 100 nM

SMILES: C[C@H](Sc1nncn1C)c1cccc(NC(=O)c2cc(C(=O)N3CCC[C@H]3C)ccn2)c1
- IC50 [2]: > 10000 nM

SMILES: Cn1cnnc1CC1(c2cccc(N3Cc4c(cc(CN5CC[C@@H](c6ccccc6)C5)cc4C(F)(F)F)C3=O)c2)COC1
- IC50 [2]: < 100 nM

SMILES: Cn1cnnc1CC1(c2cccc(N3Cc4c(cc(CN5CCOC(CCO)C5)cc4C(F)(F)F)C3=O)c2)COC1 (stereo not given)
- IC50 [2]: < 100 nM

SMILES: Cn1cnnc1CC1(c2cccc(N3Cc4c(cc(CN5Cc6cccc(C#N)c6C5)cc4C(F)(F)F)C3=O)c2)COC1
- IC50 [2]: < 100 nM

SMILES: Cn1cnnc1CC1(c2cccc(N3Cc4c(cc(CN5CCOC(CC(F)(F)F)C5)cc4C(F)(F)F)C3=O)c2)COC1 (stereo not given)
- IC50 [2]: < 100 nM

SMILES: COC[C@@H]1CN(Cc2cc3c(c(C(F)(F)F)c2)CN(c2cccc(C4(Cc5nncn5C)COC4)c2)C3=O)CCO1
- IC50 [2]: < 100 nM

SMILES: Cc1cc(C(=O)Nc2cccc(C3(Cc4nncn4C(F)F)COC3)c2)nc(C2CC2)n1
- IC50 [2]: < 100 nM

SMILES: Cn1cnnc1CC1(c2cccc(N3Cc4c(cc(CN5CCOC(CCF)C5)cc4C(F)(F)F)C3=O)c2)COC1 (stereo not given)
- IC50 [2]: < 100 nM

SMILES: CC(C)C1CN(Cc2cc3c(c(C(F)(F)F)c2)CN(c2cccc(C4(Cc5nncn5C)COC4)c2)C3=O)CCO1 (stereo not given)
- IC50 [2]: < 100 nM

SMILES: Cn1cnnc1CC1(c2cccc(N3Cc4c(cc(CN5CCO[C@H](C(F)(F)F)C5)cc4C(F)(F)F)C3=O)c2)COC1
- IC50 [2]: < 100 nM

SMILES: C[C@@H]1CCN(Cc2cc3c(c(C(F)(F)F)c2)CN(c2cccc(C4(Cc5nncn5C)COC4)c2)C3=O)C[C@@H]1F
- IC50 [2]: < 100 nM

SMILES: CC(c1cc2c(c(C(F)(F)F)c1)CN(c1cccc(C3(Cc4nncn4C)COC3)c1)C2=O)n1ccnc1 (stereo not given)
- IC50 [2]: < 100 nM

SMILES: C[C@@H]1CN(Cc2cc3c(c(C(F)(F)F)c2)CN(c2cccc(-c4c(-c5nncn5C)cnn4C)c2)C3=O)C[C@H](C)O1
- IC50 [2]: < 100 nM

SMILES: Cn1cnnc1CC1(c2cccc(N3Cc4c(cc(CN5Cc6cccc(Cl)c6C5)cc4C(F)(F)F)C3=O)c2)COC1
- IC50 [2]: < 100 nM

SMILES: C[C@@H]1CN(Cc2cc3c(c(C(F)(F)F)c2)CN(c2cccc(C4(Cc5nncn5C)COC4)c2)C3=O)C[C@H](C)O1
- IC50 [2]: < 100 nM

SMILES: Cn1cnnc1CC1(c2cccc(N3Cc4c(cc(CN5CC[C@@H](F)[C@@H](F)C5)cc4C(F)(F)F)C3=O)c2)COC1 (relative stereo)
- IC50 [2]: < 100 nM
